Like-named read-outs stand apart in the source and are kept apart here.
Columns and labels:
[1] = tested on: insulin-resistant HepG2 cells; assay: 2-NBDG glucose uptake assay in insulin-resistant HepG2 cells; assay type: cell-based, human; details: 24 h; for Insulin-stimulated glucose uptake compared with rosiglitazone 10 µM (112%): 20 µM
Protocol: Figure 8 Effect of bromophenols 1–3 on insulin-stimulated glucose uptake in insulin-resistant HepG2 cells. The glucose uptake assay was performed using the fluorescent D-glucose analogue 2-NBDG and 10^−6 mol/L insulin was to induce insulin resistance. Insulin-resistant HepG2 cells were treated with the indicated concentrations of test compounds or rosiglitazone for 24 h, and insulin-stimulated 2-NBDG uptake was measured. Values represent the mean ± standard deviation of triplicate experiments. ^a p < 0.01 indicates significant differences from the control group; ^b p < 0.05, ^c p < 0.01, and ^d p < 0.001 indicate significant differences from the insulin-resistant group.
(§1) HepG2 (human hepatocarcinoma) cells obtained from the American Type Culture Collection (HB-8065; Manassas, VA, USA) were maintained in 10% FBS MEM at 37 °C in a humidified atmosphere with 5% CO2. Cytotoxicity was evaluated using the MTT assay. Following previously described methods, an insulin-resistant HepG2 cell model was established. All other experimental conditions and procedures were similar to those reported in our previous paper.
The relative percent glucose uptake upon sample treatment in IR-HepG2 cells was evaluated by a flourimetric method using the fluorescent D-glucose analog 2-NBDG and measured on a fluorescence microplate reader (FL×800, Bio-Tek Instruments, Inc., Winooski, VT, USA) at 485 nm excitation and 528 nm emission wavelengths. Detailed experimental conditions and procedures are reported in our previous publication.

[2] = tested on: PTP1B expression in insulin-resistant HepG2 cells; assay: PTP1B expression level in insulin-resistant HepG2 cells (western blot); assay type: cell-based, human; details: 24 h treatment, then 100 nM insulin 30 min
Protocol: Figure 9 Effects of bromophenol 1 (A), 2 (B), and 3 (C) on protein tyrosine phosphatase 1B (PTP1B) expression levels in insulin-resistant HepG2 cells. Western blotting was performed and protein band intensities were quantified by densitometric analysis. Upper panels display representative blots. Equal protein loading was ensured and normalized against β-actin levels. Values represent the mean ± standard deviation of three independent experiments; ^a p < 0.001 indicates significant differences from the control group; ^b p < 0.05, ^c p < 0.01, and ^d p < 0.001 indicate significant differences from the insulin-resistant group.
Insulin-resistant HepG2 cells were exposed to a range of concentrations of 1–3 or rosiglitazone (10 μM) in 24-well plates for 24 h followed by stimulation with 100 nM insulin diluted in SFMEM for 30 min. Cells were then washed twice with ice cold PBS, collected, and lysed with sample buffer. Protein was quantified by the modified Bradford protein assay kit using bovine serum albumin (BSA) as a standard, electrophoresed on sodium dodecyl sulfate-polyacrylamide gels (Bio-Rad, Hercules, CA, USA), and then transferred to polyvinylidene difluoride (PVDF) membranes (Immobilon-P; Millipore, Burlington, MA, USA) using the Pierce G2 Fast Blotter (Thermo Fisher Scientific Inc, USA) at 100 V for 60 min in a standard semi-dry system. […]

[3] = target: T1, Human recombinant protein tyrosine phosphatase (PTP1B) (Homo sapiens, UniProt P18031); assay: Kinetic study against PTP1B (Lineweaver–Burk and Dixon plots); assay type: biochemical; details: for PTP1B Inhibition Type: determined from Lineweaver–Burk plots
T1 sequence (P18031 1-435): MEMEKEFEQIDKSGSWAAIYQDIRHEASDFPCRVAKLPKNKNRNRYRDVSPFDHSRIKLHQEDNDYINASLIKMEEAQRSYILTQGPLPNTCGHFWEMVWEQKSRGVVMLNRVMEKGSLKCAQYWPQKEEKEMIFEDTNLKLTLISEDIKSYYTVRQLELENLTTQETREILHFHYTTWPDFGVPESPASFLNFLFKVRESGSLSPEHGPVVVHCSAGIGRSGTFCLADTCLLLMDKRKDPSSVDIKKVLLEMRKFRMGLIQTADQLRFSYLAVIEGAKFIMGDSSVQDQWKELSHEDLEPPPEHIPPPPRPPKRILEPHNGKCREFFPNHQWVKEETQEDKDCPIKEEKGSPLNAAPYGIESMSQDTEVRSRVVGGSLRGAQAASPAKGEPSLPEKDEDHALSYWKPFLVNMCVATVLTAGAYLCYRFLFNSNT
Protocol: (§2) In competitive inhibition mode (Figure 2C), double reciprocal plots yielded a group of lines with the same y-intercept (constant Vmax) but different x-intercepts (varying Km values). […] The double reciprocal plots of α-glucosidase enzyme inhibition by 3 yielded a group of lines intersecting at a single point in the second quadrant.
(§3) The modes of enzyme inhibition were evaluated by monitoring the effects of different concentrations of the substrates (1, 2, or 4 mM pNPP for PTP1B and 1.25, 2.5, or 5 mM pNPG for α-glucosidase) on Dixon plots (single reciprocal plots). […] The enzymatic procedure consisted of the same aforementioned assay method. The inhibition constants (Ki) were determined by interpreting Dixon plots, where the value of the x-intercept indicated the value of −Ki.

[4] = target: α-glucosidase; set-up: method as in ref 24, 34 (Kurihara et al.); details: different enzyme and pNPG concentrations; 34 (Kurihara et al.); read-out: 50% α-glucosidase enzyme inhibition concentration (literature); cited from earlier work
[5] = target: T2, yeast α-glucosidase (Saccharomyces cerevisiae, UniProt P53341); assay: biochemical; assay type: biochemical; details: for Enhancement of α-glucosidase inhibitory activity compared to 2: ratio of IC50 values
T2 construct: purchased Sigma-Aldrich Co. (St. Louis, MO, USA)
T2 sequence (P53341 whole entry): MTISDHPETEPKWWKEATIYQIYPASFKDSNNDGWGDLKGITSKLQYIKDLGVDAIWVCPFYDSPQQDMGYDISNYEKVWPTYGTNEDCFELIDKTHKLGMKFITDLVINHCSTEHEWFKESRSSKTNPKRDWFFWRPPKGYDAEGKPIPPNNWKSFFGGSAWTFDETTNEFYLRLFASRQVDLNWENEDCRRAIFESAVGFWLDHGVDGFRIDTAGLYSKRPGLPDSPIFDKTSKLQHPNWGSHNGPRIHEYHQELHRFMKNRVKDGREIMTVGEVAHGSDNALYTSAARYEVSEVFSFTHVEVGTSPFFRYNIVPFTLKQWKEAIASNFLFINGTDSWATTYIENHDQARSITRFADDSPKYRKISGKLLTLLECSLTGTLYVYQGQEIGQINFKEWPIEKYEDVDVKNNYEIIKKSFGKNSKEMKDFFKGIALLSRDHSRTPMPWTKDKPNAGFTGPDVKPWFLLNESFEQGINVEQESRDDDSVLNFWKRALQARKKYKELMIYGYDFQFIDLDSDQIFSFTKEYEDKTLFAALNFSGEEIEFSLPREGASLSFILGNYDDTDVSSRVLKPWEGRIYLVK
Description: (§4) The initial step in evaluating anti-diabetic secondary metabolites from Symphyocladia latiuscula was the evaluation of PTP1B and α-glucosidase inhibition potentials of methanol extract and fractions obtained by MeOH extract partition with different solvents using pNPP and pNPG as substrates, respectively. Enzyme inhibition levels are expressed as mean IC50 values with standard deviation.
(§5) Human recombinant protein tyrosine phosphatase (PTP1B) was purchased from Biomol International LP (Plymouth Meeting, PA, USA). Fetal bovine serum (FBS), minimum essential medium (MEM), sodium pyruvate, penicillin-streptomycin, and nonessential amino acids were purchased from Gibco-BRL Life Technologies (Grand Island, NY, USA). The fluorescent D-glucose analogue and 2-NBDG was purchased from Life Technologies (Carlsbad, CA, USA). Human insulin was purchased from Eli Lilly (Fegersheim, France). All other chemicals and solvents used were of reagent grade and acquired from commercial sources.
The α-glucosidase inhibition assay procedure, previously reported by Li et al., was followed to measure the release of […] at 405 nm using a microplate spectrophotometer (Molecular Devices).

[6] = target: T2, yeast α-glucosidase; assay: Kinetic study against α-glucosidase (Lineweaver–Burk and Dixon plots); assay type: biochemical; details: for α-Glucosidase Inhibition Type: determined from Lineweaver–Burk plots
Protocol: as §2, §3

[7] = target: T1, Human recombinant protein tyrosine phosphatase (PTP1B); assay: PTP1B inhibitory assay with pNPP substrate; assay type: biochemical
Description: as §4, §5
The potential for MeOH extract, solvent-soluble fractions, and isolated compounds to inhibit PTP1B enzyme activity was evaluated using the pNPP substrate. Experimental conditions and laboratory procedures were similar to those published in our previous report.

[8] = tested on: HepG2 cells; assay: MTT cytotoxicity assay in HepG2 cells; assay type: cell-based, human; details: 25, 50 and 100 μM, 24 h
Protocol: Cytotoxicity of bromophenols on HepG2 cells was evaluated using a 3-(4,5-dimethylthiazol-2-yl)-2,5-diphenyl tetrazolium bromide (MTT) assay. […] So, considering enzyme inhibition activity and toxicity in HepG2 cells, we performed cell-based experiments at 5, 10, and 20 µM concentrations.
Figure 7 Effect of bromophenols 1–3 on cell viability in HepG2 cells. Cell viability was determined using the 3-(4,5-dimethylthiazol-2-yl)-2,5-diphenyl tetrazolium bromide (MTT) method. Cells were pretreated with the indicated concentrations (25, 50, and 100 μM) of test compounds for 24 h. Data shown represent mean ± standard deviation of triplicate experiments. ^a p < 0.05 indicates significant differences from the control group.
as §1

[9] = tested on: PTP1B; set-up: method as in ref 35 (Liu et al.); details: ref 35 (Liu et al.); read-out: PTP1B IC50 (literature); cited from earlier work

Structure (SMILES) | Insulin-stimulated glucose uptake (2-NBDG) ([1]; 10 µM, relative to normal control) | Insulin-stimulated glucose uptake compared with rosiglitazone 10 µM ([1]; 10 µM) | Effect on PTP1B expression level [2] | Ki ([3]; determined from Dixon plots, read-out: PTP1B Ki) | PTP1B Inhibition Type [3] | IC50 [4] | IC50 ([5]; mean ± SD, n = 3, read-out: α-Glucosidase IC50) | Enhancement of α-glucosidase inhibitory activity compared to 2 [5] | Ki ([6]; determined from Dixon plots, read-out: α-Glucosidase Ki) | α-Glucosidase Inhibition Type [6] | IC50 ([7]; mean ± SD, n = 3, read-out: PTP1B IC50) | Insulin-stimulated glucose uptake compared with rosiglitazone 10 µM (112%) [1] | Ki [3] | IC50 [5] | Cytotoxicity (cell viability, MTT) in HepG2 cells [8] | Ki [6] | IC50 [7] | IC50 [9]
CN(CCOc1ccc(CC2SC(=O)NC2=O)cc1)c1ccccn1 (stereo not drawn) [Rosiglitazone, rosiglitazone, reference compound] | 112% |  |  |  |  |  |  |  |  |  |  |  |  |  |  |  |  | 
Oc1c(O)c(Br)c(COCc2c(Br)c(O)c(O)c(Br)c2Br)c(Br)c1Br [Compound 3, Bis-(2,3,6-tribromo-4,5-dihydroxybenzylmethyl ether)] |  | greater effect than rosiglitazone | excellent ability to reduce PTP1B expression level | 2250 nM | Competitive | 30 nM | 1920 ± 20 nM | 3.8 fold | 210 nM | Mixed-type | 5290 ± 80 nM |  |  |  |  |  |  | 
OCc1c(Br)c(O)c(O)c(Br)c1Br [Compound 1, 2,3,6-Tribromo-4,5-dihydroxybenzyl alcohol] |  |  |  |  | Mixed-type | 11000 nM |  | 2.5 fold |  | Noncompetitive |  | comparable | 1190 nM | 2630 ± 110 nM | slightly toxic effect at 100 μM | 1920 nM | 7740 ± 140 nM | 
COCc1c(Br)c(O)c(O)c(Br)c1Br [Compound 2, 2,3,6-Tribromo-4,5-dihydroxybenzyl methyl ether] |  |  |  |  | Mixed-type |  |  |  |  | Noncompetitive |  | comparable | 2400 nM | 7240 ± 20 nM | did not show toxicity until they were used at a concentration of 100 μM | 5540 nM | 8500 ± 450 nM | 3900 nM
